In patent US5876761A, “Sustained release formulations of water soluble peptides” (Novartis AG, priority 1990, dated 1999):
“Also recorded” adds a separate entry of the source.

Assay: Stability of octreotide pamoate in sustained release formulations
Type: physicochemical
Details: in sustained release formulations (microparticles); hydrate

## C[C@@H](O)[C@@H]1NC(=O)[C@H](CCCCN)NC(=O)[C@@H](Cc2c[nH]c3ccccc23)NC(=O)[C@H](Cc2ccccc2)NC(=O)[C@@H](NC(=O)[C@H](N)Cc2ccccc2)CSSC[C@@H](C(=O)N[C@H](CO)[C@@H](C)O)NC1=O [pamoate, octreotide pamoate hydrate]
  stability: excellent stability; also recorded: very stable
